In US9394303B2, “Small molecule inhibitors of MCL-1 and uses thereof” (priority 2014, dated 2016):
“Also recorded” adds a separate entry of the source. Like-named read-outs stand apart in the source and are kept apart here. Each block holds one molecule with its values, some of them ahead of it.

Columns and labels:
[1] = target: T1, Mcl-1 (Homo sapiens (Human), UniProt Q07820); conditions: cited from earlier work
[2] = target: T1, Mcl-1; conditions: for did not bind to Mcl-1 up to: highest concentration tested
[3] = target: Bcl-2 (Homo sapiens, UniProt P10415); assay: Fluorescence polarization-based competitive binding assay (FAM-BID tracer)
Sequence of Bcl-2 (P10415 whole entry, looked up): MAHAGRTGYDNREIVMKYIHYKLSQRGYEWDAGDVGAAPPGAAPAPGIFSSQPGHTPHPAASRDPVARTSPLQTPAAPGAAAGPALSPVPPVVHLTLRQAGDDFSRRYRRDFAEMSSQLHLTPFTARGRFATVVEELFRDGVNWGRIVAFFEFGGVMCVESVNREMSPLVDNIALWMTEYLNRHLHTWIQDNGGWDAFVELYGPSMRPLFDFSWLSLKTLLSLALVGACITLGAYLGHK

[4] = target: Bcl-xL (Homo sapiens (Human), UniProt Q07817, DEL45-85); assay: as above; conditions: for Ki: Table 2, tested up to 20 μM, read-out: Bcl-XL Ki ± SD
Sequence of Bcl-xL (Q07817 with tags, fused parts or gaps DEL45-85): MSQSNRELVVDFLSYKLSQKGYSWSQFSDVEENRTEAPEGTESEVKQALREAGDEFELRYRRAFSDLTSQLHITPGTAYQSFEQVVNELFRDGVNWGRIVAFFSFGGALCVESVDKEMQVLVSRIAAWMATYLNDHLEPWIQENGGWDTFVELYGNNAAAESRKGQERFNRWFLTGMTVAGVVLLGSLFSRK

[5] = test system: Eμ-myc lymphoma cells overexpressing Bcl-2; assay: Eμ-myc lymphoma cell killing; assay type: cell-based, mice; conditions: FIG. 9
Excerpt: (§1) The specificity and selectivity of this class Mcl-1 inhibitors was further confirmed by using cell lines developed by retroviral transduction of lymphoma cells isolated from Eμ-myc transgenic mice which survival depends on the expression of individual prosurvival protein (see, e.g., Whitecross K F, Alsop A E, Cluse L A, Wiegmans A, Banks K M, et al. 2009. […].

[6] = test system: Eμ-myc lymphomas overexpressing Mcl-1; assay: Eμ-myc lymphoma cell killing; assay type: cell-based, mice; conditions: FIG. 9
Excerpt: as §1

[7] = test system: Eμ-myc lymphoma cells overexpressing Bcl-xL; assay: Eμ-myc lymphoma cell killing; assay type: cell-based, mice; conditions: FIG. 9
Excerpt: as §1

[8] = Table 2; tested up to 20 μM; read-out: Bcl-2 Ki ± SD
[9] = read-out: Bcl-2 Ki ± SD; Table 2; tested up to 20 μM

SMILES: CN(C)CC[C@H](CSc1ccccc1)Nc1ccc(S(=O)(=O)NC(=O)c2ccc(N3CCN(Cc4ccccc4-c4ccc(Cl)cc4)CC3)cc2)cc1[N+](=O)[O-] [ABT-737]
binding to Mcl-1 [1]: fails to bind

did not bind to Mcl-1 up to [2]: > 200 µM
SMILES: Cc1cc(C(=O)O)c2c(C)nn(C)c2n1 [Compound 5, 1,3,6-Trimethyl-1H-pyrazolo[3,4-b]pyridine-4-carboxylic acid]

SMILES: Cc1cc(Oc2ccc(Cn3nc(C)c4c(C(=O)O)cc(-c5ccco5)nc43)cc2)cc(C)c1Cl [Compound 57]
Ki [3, 8]: 1.95 ± 0.2 µM
Ki [4]: > 5 µM
no binding to Bcl-xL up to ([4]; highest concentration tested): > 20 µM
effect on Eμ-myc lymphoma cells dependent on Bcl-2 [5]: did not show effect; also recorded: not affected
effect on Eμ-myc lymphoma cells dependent on Mcl-1 [6]: led to sensitization; also recorded: selective killing
effect on Eμ-myc lymphoma cells dependent on Bcl-xL [7]: did not show effect; also recorded: not affected

SMILES: CC1(C)CCC(c2ccc(Cl)cc2)=C(CN2CCN(c3ccc(C(=O)NS(=O)(=O)c4ccc(N[C@H](CCN5CCOCC5)CSc5ccccc5)c(S(=O)(=O)C(F)(F)F)c4)cc3)CC2)C1 [ABT-263, reference compound]
effect on Eμ-myc lymphoma cells dependent on Bcl-2 [5]: kills
effect on Eμ-myc lymphoma cells dependent on Bcl-xL [7]: kills

SMILES: Cc1nn(Cc2ccc(Oc3ccccc3)cc2)c2nc(-c3ccco3)cc(C(=O)O)c12 [Compound 8, 6-(Furan-2-yl)-3-methyl-1-(4-phenoxybenzyl)-1H-pyrazolo[3,4-b]pyridine-4-carboxylic acid]
Ki [3, 9]: > 4 µM

SMILES: Cc1nn(Cc2ccccc2)c2nc(-c3ccco3)cc(C(=O)O)c12 [Compound 6, 1-Benzyl-6-(furan-2-yl)-3-methyl-1H-pyrazolo[3,4-b]pyridine-4-carboxylic acid]
change in potency compared to 2 ([2]; vs compound 2): slight increase in potency

SMILES: Cc1nn(Cc2ccc(Oc3cccc4ccccc34)cc2)c2nc(-c3ccco3)cc(C(=O)O)c12 [Compound 58]
Ki [3, 8]: > 4 µM
Ki [4]: > 5 µM

SMILES: Cc1nn(Cc2ccc(Oc3ccccc3)cc2)c2nc(/C=C/c3ccccc3)cc(C(=O)O)c12 [Compound 16, (E)-3-methyl-1-(4-phenoxybenzyl)-6-styryl-1H-pyrazolo[3,4-b]pyridine-4-carboxylic acid]
Ki [3, 9]: 3.16 ± 1.03 µM
Ki [4]: 3.55 ± 0.3 µM

SMILES: Cc1nn(C)c2nc(-c3ccco3)cc(C(=O)O)c12 [Compound 3, 6-(Furan-2-yl)-1,3-dimethyl-1H-pyrazolo[3,4-b]pyridine-4-carboxylic acid]
did not bind to Mcl-1 up to [2]: > 200 µM
